Source: BigSolDB 2.1

COc1ccc([C@@H]2CC(=O)c3c(O)cc(O[C@@H]4O[C@H](CO[C@@H]5O[C@@H](C)[C@H](O)[C@@H](O)[C@H]5O)[C@@H](O)[C@H](O)[C@H]4O)cc3O2)cc1O
Conditions | solubility (mole fraction)
in PEG-400, 298.15 K | 0.00633
in PEG-400, 303.15 K | 0.00749
in PEG-400, 313.15 K | 0.00985
in PEG-400, 323.15 K | 0.0124
in PEG-400, 333.15 K | 0.0152

solubility (mole fraction)
Conditions | in ethanol | in isopropanol | in n-butanol | in propylene glycol | in water
298.15 K | 3.45e-05 | 1.53e-05 | 0.000315 | 0.000535 | 1.47e-07
303.15 K | 3.95e-05 | 1.87e-05 | 0.000359 | 0.000647 | 1.52e-07
313.15 K | 5.27e-05 | 2.61e-05 | 0.000461 | 0.000886 | 1.61e-07
323.15 K | 6.56e-05 | 3.82e-05 | 0.000582 | 0.00114 | 1.7e-07
333.15 K | 8.45e-05 | 5.86e-05 | 0.000715 | 0.00158 | 1.8e-07
